One data set has as its system Wild type adipocytes. The experiment in a line: Adiponectin expression in wt adipocytes treated with osteocalcin (real time PCR). Type of data set: cell-based, mouse. The text has this:
FIG. 7. Esp−/− Mice Are a Model of Increased Osteocalcin Bioactivity. (A-G) Comparison between 6-week-old WT, Esp−/, Ocn+/−, and Esp−/−; Ocn+/− mice. (A) Blood glucose levels. (B) Serum insulin levels. (C) Serum adiponectin levels. (D) GTT. (E) ITT. (F) GSIS test. (G) Quantification of the number of Ki67-immunoreactive cells in pancreatic islets. […] (J) Expression of Adiponectin in WT adipocytes cocultured with osteoblasts treated with warfarin or vehicle. (K) Expression of Adiponectin in WT adipocytes cultured in presence of vehicle or of 1 ng/ml of commercially available carboxylated osteocalcin (Immunotopics) or bacterially produced uncarboxylated osteocalcin. (L) Expression of Insulin and Cyclin D1 in WT islets cultured in presence of 0.3 ng/ml of bacterially produced uncarboxylated osteocalcin or vehicle. (M) Metabolic parameters and total serum osteocalcin levels in control and obese patients. (N-O) Quantification of carboxylated osteocalcin (HA-bound osteocalcin) in control and obese patients. In (A)-(C) and (G)-(L): *p<0.05 versus WT (Student's t test); in (D)-(F), °p<0.05 versus WT and *p % 0.001 versus WT (ANOVA followed by post hoc analysis).
FIG. 15. […] Wt adipocytes were treated for 4 hours with recombinant full-length osteocalcin (1-46) or a truncated form (1-36) or vehicle. Adiponectin expression was then quantified by real time PCR.
Primary adipocytes were isolated from epididymal fat pads by collagenase digestion. Briefly, minced adipose tissue was digested by 1 mg/ml collagenase P in KRP Buffer (20 mM HEPES, 120 mM NaCl, 6 mM KCl, 1.2 mM MgSO4, 1 mM CaCl2, 0.6 mM Na2HPO4, 0.4 mM NaH2PO4, 2.5 mM D-glucose, 2% BSA, pH 7.4) for 1 h at 37° C. The isolated cells were washed twice with KRP Buffer before being cultured in αMEM/1% FBS at 37° C. in 5% CO2.
(§1) All gene expression analyses were performed using real time PCR. DNAse I-treated total RNA was converted to cDNA with the SuperScript III kit (Invitrogen). Real-time PCR were performed using the Taq SYBR Green Supermix with ROX (Biorad) on an MX3000 instrument (Stratagene); beta-actin amplification was used as an internal reference for each sample. All primers were from SuperArray.
Experiments were performed to test whether truncated osteocalcin was as effective as full-length uncarboxylated osteocalcin in stimulating adiponectin secretion from mouse adipocytes in vitro. Wild type adipocytes were treated for 4 hours with recombinant full-length osteocalcin (1-46) or a truncated form (1-36) (having a deletion of the […] ten amino acids from the C-terminal end) or vehicle. Adiponectin expression was then quantified by real time PCR. […]

The test system of another data set is beta-cells. The experiment in a line: Streptozotocin (STZ) injection in WT and Esp−/− mice: survival and blood glucose. Particulars: eight days after injection. Type of data set: in vivo, mouse. The text has this:
FIG. 3. Esp−/− Mice Are Protected from Obesity and Glucose Intolerance. A-F) Food intake per day (A), body weight curve (B), fat pad mass (C), serum triglyceride levels (D), GTT (E), and ITT (F) in 4-month-old WT and Esp−/− mice 3 months after GTG or vehicle injection. (G-I) Body weight curve (G), GTT (H), and ITT (I) in 3 month-old WT and Esp−/− mice fed a high fat diet for 6 weeks. (J and K) Serum insulin levels (J) and pancreatic insulin content (K) in 1-month-old WT and Esp−/− mice 8 days after STZ or vehicle injection. (L and M) Survival of mice (L) and change of blood glucose levels (M) in 1-month-old WT and Esp−/− mice during the 8 days following STZ injection. (N) Urinary glucose assays in 1-month-old WT and Esp−/− mice 8 days after STZ injection. In (A)-(F), (J), and (K): a, WT versus Esp−/−; b, WT+GTG (or STZ) versus WT+vehicle; c, WT+GTG (or STZ) versus Esp−/−+GTG (or STZ); d, Esp−/−+GTG (or STZ) versus Esp−/−+vehicle. In (G)-(I) and (M), *p<0.05 WT versus Esp−/−. In (A), (C), (D), (J), and (K), Student's t test, p<0.05 for a-d; in (B), (E)-(I), (L), and (M), ANOVA followed by post hoc analysis when number of groups >2, p % 0.001 for a-d.
For glucose tolerance test (GTT), glucose (2 g/kg body weight (BW)) was injected intraperitoneally (IP) after an overnight fast and blood glucose was monitored using blood glucose strips and the Accu-Check glucometer (Roche) at indicated times. For glucose stimulated insulin secretion test (GSIS), glucose (3 g/kg BW) was injected IP after an overnight fast; sera were collected from tails and insulin measured as described (Mauvais-Jarvis et al., 2000). For insulin tolerance test (ITT), mice were fasted for six hours, injected IP with insulin (0.2 U/kg BW) and blood glucose levels were measured at indicated times as described (Mauvais-Jarvis et al., 2002). ITT data are presented as percentage of initial blood glucose concentration. Gold thioglucose (600 mg/kg BW, USP) was injected IP after an overnight fast, mice were sacrificed 3 months later for analysis. Streptozotocin ([…] single injection, Sigma) was injected IP and blood glucose measured as described above every 2 days thereafter. After 8 days, pancreases were isolated to measure insulin content as previously described (Mauvais-Jarvis et al., 2000). Food intake was measured using metabolic cages as the daily change of food weight. Energy expenditure was measured using metabolic cages connected to a calorimeter (Columbus Instrument). Heat values (Kcal/Hr) were recorded over 2 days and reported to each mouse BW.
Whether the increase in insulin sensitivity could protect Esp−/− mice from pancreatic beta-cell failure was determined. […] Unlike STZ-treated WT mice, glucose could not be detected in urine of STZ-injected Esp−/− mice (FIG. 3N).

The next data set deals with T1, gamma carboxylase (Homo sapiens, UniProt P38435).
T1 sequence (P38435 1-758): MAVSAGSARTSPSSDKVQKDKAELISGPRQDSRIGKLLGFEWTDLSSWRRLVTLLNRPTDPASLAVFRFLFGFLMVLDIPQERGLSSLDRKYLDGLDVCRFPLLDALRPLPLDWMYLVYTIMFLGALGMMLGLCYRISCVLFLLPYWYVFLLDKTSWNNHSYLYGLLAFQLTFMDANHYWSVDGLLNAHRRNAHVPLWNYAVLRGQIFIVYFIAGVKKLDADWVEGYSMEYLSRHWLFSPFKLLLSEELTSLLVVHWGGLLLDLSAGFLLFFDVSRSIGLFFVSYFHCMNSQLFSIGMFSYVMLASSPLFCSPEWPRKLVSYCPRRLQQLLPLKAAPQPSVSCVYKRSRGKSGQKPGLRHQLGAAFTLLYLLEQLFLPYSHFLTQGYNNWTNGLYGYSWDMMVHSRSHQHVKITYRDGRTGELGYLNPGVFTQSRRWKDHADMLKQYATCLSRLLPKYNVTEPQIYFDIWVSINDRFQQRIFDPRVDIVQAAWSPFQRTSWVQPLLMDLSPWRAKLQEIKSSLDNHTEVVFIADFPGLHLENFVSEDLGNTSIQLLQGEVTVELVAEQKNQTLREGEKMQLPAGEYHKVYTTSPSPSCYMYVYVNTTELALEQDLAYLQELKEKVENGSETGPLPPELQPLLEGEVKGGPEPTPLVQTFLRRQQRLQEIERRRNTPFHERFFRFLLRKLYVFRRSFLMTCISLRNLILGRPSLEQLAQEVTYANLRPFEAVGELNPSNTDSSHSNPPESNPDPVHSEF
The settings on record: thiol-specific inhibitors; cited from earlier work.

Another data set concerns wild type osteoblasts. Put plainly: Isoproterenol on wild type osteoblasts: mRNA levels by quantitative PCR. Type of data set: cell-based, mouse. The method, then: as §1
It was discovered that sympathetic nervous system (SNS) activity positively regulates Esp expression in osteoblasts. […] Thus, decreasing sympathetic activity should lead to a decrease in Esp expression and thereby to an increase in the undercarboxylated, active form of osteocalcin.

The conditions of data set [1]: osteoporotic patients, cited from earlier work.
The conditions of data set [2]: read-out: Kd to hydroxyapatite; cited from earlier work.

Ends that are not written are not given here.

One may read the Kd as the equilibrium constant for the complex coming apart.

In the case of “1-36 fragment of uncarboxylated osteocalcin: Recombinant truncated mouse osteocalcin (1-36), ten amino acids deleted from the C-terminal end (YLGASVPSPDPLEPTREQCELNPACDELSDQYGLKT; not fully specified; ends and bridges not checked; UniProt P86546 50-85, looked up, fragment)”, in the data set on Wild type adipocytes (wild type adipocytes treated for 4 hours, real time PCR, vs vehicle), the Adiponectin expression increase is on record as roughly 1.8 fold. Also, the “potency in inducing adiponectin expression in vitro” value in the data set on Wild type adipocytes (wt adipocytes, 4 hours (FIG. 15 legend)) is “as potent as native osteocalcin”. As to `CN(N=O)C(=O)N[C@H]1C(O)O[C@H](CO)[C@@H](O)[C@@H]1O` (mixture of isomers) [STZ, streptozotocin], in the data set on beta-cells (STZ-treated Esp−/− mice), the “blood glucose level of surviving mice” value was no more than 250 mg/dL and the mice died entry is on record as “one”. In the data set with beta-cells (STZ-treated WT mice), the mice died was 3 of the 7 and the “serum glucose levels of surviving mice” value is recorded as “above 500 mg/dl”. `CCN1C(=O)C=CC1=O` [N-ethylmaleimide (NEM), N-ethylmaleimide]: the “inhibition of gamma carboxylase” value on gamma carboxylase is reported as “inhibited”.

Take `CC(C)NCC(O)c1ccc(O)c(O)c1` (centres unmarked) [isoproterenol]: in the data set on wild type osteoblasts, the “expression of gamma-carboxylase (ggcx)” value was “did not increase”, the expression of osteocalcin entry was “did not increase” and the expression of vkor result is recorded as “did not increase”. For the same molecule, the “increase of Esp expression” value in the data set on wild type osteoblasts (at 8 hours) was “remains steady”. For the same molecule, the “increase of Esp expression” value in the data set with wild type osteoblasts (by 4 hours) is listed as “about 80%”. Take `O=C([O-])c1cc[c]([Hg][OH])cc1` [p-hydroxymurcuribenzoate (pHMB), p-hydroxymurcuribenzoate]: the “inhibition of gamma carboxylase” value at gamma carboxylase is reported as “inhibited”. As to Vitamin D, the “effect on undercarboxylated osteocalcin” value in data set [1] (alone or together with Vitamin K) is listed as “no significant effect”. For Vitamin K, the “percentage mean decrease in undercarboxylated osteocalcin” value in data set [1] (four weeks of treatment, vs controls without Vitamin K) is on record as 85%. For “carboxylated osteocalcin: commercially available carboxylated osteocalcin (Immunotopics) (YLYQWLGAPVPYPDPLEPRREVCELNPDCDELADHIGFQEAYRRFYGPV; ends and bridges not checked; also: carboxylated (Gla) residues, sites not given here; UniProt P02818 52-100, looked up) [reference compound]”, the “induction of adiponectin expression” value with Wild type adipocytes (WT adipocytes, 1 ng/ml (FIG. 7K)) was “failed to induce”.

B1: Osteocalcin: normal (Gla-containing) osteocalcin, small vitamin K-dependent calcium binding protein; literature data (protein, listed as Homo sapiens)
chain: MRALTLLALLALAALCIAGQAGAKPSGAESSKGAAFVSKQEGSEVVKRPRRYLYQWLGAPVPYPDPLEPRREVCELNPDCDELADHIGFQEAYRRFYGPV
For the molecule B1, the equilibrium dissociation constant (Kd) in data set [2] is roughly 100 nM.

These data come from patent US9518976B2, “Methods for identifying or assaying for agents that increase beta-cell proliferation, insulin secretion, insulin sensitivity, glucose tolerance and decrease fat mass” (The Trustees of Columbia University in The City of New York, priority 2006, dated 2016).
